Entries after “also recorded” stand apart in the source; their conditions may differ. Where two headings read alike, the source gives them in different places.
Assays:
TRPV1 = target: T1, TRPV1 (Rattus norvegicus, UniProt O35433); assay: Whole-cell patch clamp of TRPV1 currents in HEK293 cells overexpressing TRPV1 (HEK293-V1); type: cell-based; details: for inward current induced: cannabinoid at 50 (FIGS. 3A, 4A, 6A, 7A), applied at data point 60; for time course of induced TRPV1 current (sustained or inactivating): cannabinoid at 50, 5 μM myrcene or 1 μM capsaicin; for current development and inactivation: constant external calcium, internal Ca2+ 0 nM, 180 nM, 620 nM, FCa (FIGS. 23, 24); for Max I amplitude: 120 s, Ca 1 mM external, unbuffered internal calcium; for attainment of the pore-dilated state: 50 μM, induction time 25 hours (FIGS. 37-40C)
T1 construct: FLAG; expressed in transfected cells
T1 sequence (O35433 whole entry): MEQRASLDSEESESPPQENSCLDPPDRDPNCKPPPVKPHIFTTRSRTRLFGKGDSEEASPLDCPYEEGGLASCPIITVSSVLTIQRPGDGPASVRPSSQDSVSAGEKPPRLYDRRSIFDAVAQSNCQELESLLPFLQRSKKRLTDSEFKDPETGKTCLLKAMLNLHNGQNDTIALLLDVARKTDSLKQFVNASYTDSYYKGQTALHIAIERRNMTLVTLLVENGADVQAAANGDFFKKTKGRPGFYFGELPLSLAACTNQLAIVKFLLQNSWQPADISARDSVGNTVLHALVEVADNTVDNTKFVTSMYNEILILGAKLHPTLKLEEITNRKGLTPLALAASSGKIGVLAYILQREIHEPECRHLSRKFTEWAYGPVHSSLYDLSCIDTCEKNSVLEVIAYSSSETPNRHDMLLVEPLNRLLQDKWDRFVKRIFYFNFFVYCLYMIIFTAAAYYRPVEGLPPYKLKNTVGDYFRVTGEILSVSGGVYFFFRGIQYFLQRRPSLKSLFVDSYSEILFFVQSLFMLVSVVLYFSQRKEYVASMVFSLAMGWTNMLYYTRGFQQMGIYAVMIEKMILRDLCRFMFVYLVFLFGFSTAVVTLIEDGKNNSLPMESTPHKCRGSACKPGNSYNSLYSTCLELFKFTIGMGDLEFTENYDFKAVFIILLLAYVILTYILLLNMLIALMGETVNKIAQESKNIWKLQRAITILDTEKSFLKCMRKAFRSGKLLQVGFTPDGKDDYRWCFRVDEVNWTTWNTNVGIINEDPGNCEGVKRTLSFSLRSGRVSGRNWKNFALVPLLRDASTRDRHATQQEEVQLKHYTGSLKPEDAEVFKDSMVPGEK
Description: HEK TRexTRPV1 were cultured in DMEM, 10% Fetal Bovine Serum, 2 mM Lglutamine, 10 μg/ml Blasticidin (Calbiochem, San Diego Calif.), 400 μg/ml Zeocin (InvivoGen, San Diego Calif.), where indicated transgene expression was induced using 1 μg/ml Tetracycline for 16-24 hrs. Unless otherwise indicated, basal expression of TRPV1 without induction was sufficient for these studies, and comparisons were made to untransfected HEK where needed. HEKTRex293 over-expressing human TRPV2, human TRPA1 and human TRPM8 were obtained from SB Drug Discovery (Glasgow, Scotland) and cultured as described above. The cannabinoids and terpenes were assayed in HEK cells that have been transfected with the TRPV1 ion channel protein. These cells are called HEK293-V1 cells.
This technique is used to study ionic currents from HEK293-V1. The voltage across the cell membrane is controlled and the ionic currents associated with changes in voltage are measured. A micropipette tip is pulled to a few micrometers in diameter followed by heating the tip to produce a smooth surface that assists in forming a high resistance seal with the cell membrane. To obtain this high resistance seal, the micropipette is pressed against a cell membrane and suction is applied. The membrane then fuses onto the glass surface creating a high resistance in the gigaohm range. This makes it possible to isolate electronically the ionic currents measured across the membrane patch or across the entire cell.
Patch-clamp experiments were performed in the whole-cell configuration at 21-25° C. Patch pipettes had resistances of 2-3 MΩ. Data was acquired with PatchMaster software (HEKA, Lambrecht, Germany), controlling an EPC-9 amplifier. Voltage ramps of 50 ms spanning the voltage range from −100 to 100 mV were delivered from a holding potential of 0 mV at a rate of 0.5 Hz over a period of 500 ms to 180 seconds (3 minutes). Voltages were corrected for a liquid junction potential of 10 mV. Currents were filtered at 2.9 kHz and digitized at 100 μs intervals. Capacitive currents were determined and corrected before each voltage ramp. The development of currents for a given potential was extracted from individual ramp current records by measuring the current amplitudes at voltages of −80 mV and +80 mV. Data were analyzed with FitMaster (HEKA, Lambrecht, Germany), and IgorPro (WaveMetrics, Lake Oswego, Oreg., USA). Where applicable, statistical errors of averaged data are given as mean±s.e.m with n determinations. The activated current amplitudes are analyzed by nA rather than pA/pF. […] Also the cell size selected for patching was in the 9 -12 pF range.
For patch-clamp recordings, HEK293 cells were kept in a standard sodium-based external Ringer's solution containing (mM): 140 NaCl, 1 CaCl2, 2 MgCl2, 2.8 KCl, 11 glucose, 10 HEPES-NaOH with a pH of 7.2 and osmolarity of 300 mOsmol. To assess the effects of external Calcium (Ca) on TRPV1 inactivation kinetics, Ca at different levels were tested including 0, 1, and 3 mM. In Experiments with zero external Ca, EGTA 10 mM was added and the Na concentration was lowered to 130 mM to maintain standard osmotic conditions at 300 mOsmol. For rapid external solution application and exchanges we used the SmartSquirt delivery system (Auto-Mate Scientific, San Francisco Calif., USA) that included four cryo tubes allowing for solution exchanges within one patch. This system included a ValveLink TTL interface between the electronic valves and the EPC10 amplifier (HEKA, Lambrecht, Germany). This electronic configuration allowed for programmable solution changes via the PatchMaster software (HEKA, Lambrecht, Germany).

WT HEK293 = assay: Bulk calcium assay in untransfected WT HEK293; type: cell-based; details: 10 μM, 1 mM external Ca2+
[1] = CBD-induced current, internal Ca2+ 0, external Ca2+ 0 mM
[2] = CBD-induced current, internal Ca2+ 0, external Ca2+ 1 mM
[3] = CBD-induced current, internal Ca2+ 0, external Ca2+ 3 mM
[4] = CBD-induced current, internal Ca2+ 180 nM, external Ca2+ 0 mM
[5] = CBD-induced current, internal Ca2+ 180 nM, external Ca2+ 1 mM
[6] = CBD-induced current, internal Ca2+ 180 nM, external Ca2+ 3 mM
[7] = CBD-induced current, internal Ca2+ >620 nM (free Ca2+), external Ca2+ 0 mM
[8] = CBD-induced current, internal Ca2+ >620 nM (free Ca2+), external Ca2+ 1 mM
[9] = CBD-induced current, internal Ca2+ >620 nM (free Ca2+), external Ca2+ 3 mM
[10] = after cannabinoid at 50 (voltage ramp)
[11] = calculated from Imax per dose, HEK-TRPV1 patch clamp, read-out: EC50 at TRPV1

C=C(C)[C@@H]1CCC(C)=C[C@H]1c1c(O)cc(CCCCC)cc1O [CBD, Cannabidiol]
EC50 (TRPV1): 30 µM | type of TRPV1 current recorded (TRPV1; CBD 30 μM, Ca 0 internally and externally): outwardly rectifying current | transition to the pore-dilated state (TRPV1; CBD up to 150 μM, induction times 0-25 hours, currents about 10 nA): no transition to the pore-dilated state | Max rate of activation (TRPV1; CBD-induced current (30 μM, FIG. 22), internal Ca2+ 0, external Ca2+ 0 mM): 1.1% per S | Max rate of activation (TRPV1; CBD-induced current (30 μM, FIG. 22), internal Ca2+ 0, external Ca2+ 1 mM): 1.9% per S | Max rate of activation (TRPV1; CBD-induced current (30 μM, FIG. 22), internal Ca2+ 0, external Ca2+ 3 mM): 3% per S | Rate of inactivation (TRPV1; [1]): 0.41% per S | Time to max amplitude (TRPV1; [1]): 136 S | Rate of inactivation (TRPV1; [2]): 0.82% per S | Time to max amplitude (TRPV1; [2]): 94 S | Rate of inactivation (TRPV1; [3]): 0.94% per S | Time to max amplitude (TRPV1; [3]): 82 S | Max rate of activation (TRPV1; [4]): 1.6% per S | Rate of inactivation (TRPV1; [4]): 0.67% per S | Time to max amplitude (TRPV1; [4]): 108 S | Max rate of activation (TRPV1; [5]): 1.6% per S | Rate of inactivation (TRPV1; [5]): 0.71% per S | Time to max amplitude (TRPV1; [5]): 116 S | Max rate of activation (TRPV1; [6]): 2.4% per S | Rate of inactivation (TRPV1; [6]): 0.72% per S | Time to max amplitude (TRPV1; [6]): 92 S | Max rate of activation (TRPV1; [7]): 0.83% per S | Rate of inactivation (TRPV1; [7]): 0.49% per S | Time to max amplitude (TRPV1; [7]): 160 S | Max rate of activation (TRPV1; [8]): 1.5% per S | Rate of inactivation (TRPV1; [8]): 1.1% per S | Time to max amplitude (TRPV1; [8]): 120 S | Max rate of activation (TRPV1; [9]): 2.7% per S | Rate of inactivation (TRPV1; [9]): 1% per S | Time to max amplitude (TRPV1; [9]): 88 S | IV relationship / TRPV1 channel state (TRPV1; [10]): outwardly-rectifying IV curve consistent with un-dilated TRPV1 (state 1) | inward current induced (TRPV1): 4-6 nA | time course of induced TRPV1 current (sustained or inactivating) (TRPV1): sustained | current development and inactivation (TRPV1): gradual current development, which inactivated only when internal calcium is buffered above zero | Rate of inactivation (TRPV1; dose 10 micromolar): 0 dpsec^−1 | Time to max (TRPV1; dose 10 micromolar): 178 s | Max I amplitude (TRPV1; dose 10 micromolar): 0.8 nA | Rate of inactivation (TRPV1; dose 30 micromolar): 0 dpsec^−1 | Time to max (TRPV1; dose 30 micromolar): 180 s | Max I amplitude (TRPV1; dose 30 micromolar): 2.2 nA | Rate of inactivation (TRPV1; dose 50 micromolar): .02 dpsec^−1 | Time to max (TRPV1; dose 50 micromolar): 130 s | Max I amplitude (TRPV1; dose 50 micromolar): 1.6 nA | Rate of inactivation (TRPV1; dose 150 micromolar): .042 dpsec^−1 | Time to max (TRPV1; dose 150 micromolar): 96 s | Max I amplitude (TRPV1; dose 150 micromolar): 3.5 nA

C=C(C)[C@@H]1CCC(C)=C[C@H]1c1c(O)cc(CCC)cc1O [CBDV, Cannabidivarin]
attainment of the pore-dilated state (TRPV1): lack of attainment of the pore-dilated state | IV relationship / TRPV1 channel state (TRPV1; [10]): outwardly-rectifying IV curve consistent with un-dilated TRPV1 (state 1) | EC50 (TRPV1; [11]): 56 µM | inward current induced (TRPV1): 2-3 nA | time course of induced TRPV1 current (sustained or inactivating) (TRPV1): sustained | Rate of inactivation (TRPV1; dose 10 micromolar): 0 dpsec^−1 | Time to max (TRPV1; dose 10 micromolar): 148 s | Max I amplitude (TRPV1; dose 10 micromolar): 0.5 nA | Rate of inactivation (TRPV1; dose 30 micromolar): .013 dpsec^−1 | Time to max (TRPV1; dose 30 micromolar): 136 s | Max I amplitude (TRPV1; dose 30 micromolar): 1.5 nA | Rate of inactivation (TRPV1; dose 50 micromolar): .009 dpsec^−1 | Time to max (TRPV1; dose 50 micromolar): 82 s | Max I amplitude (TRPV1; dose 50 micromolar): 0.9 nA | Rate of inactivation (TRPV1; dose 150 micromolar): .14 dpsec^−1 | Time to max (TRPV1; dose 150 micromolar): 62 s | Max I amplitude (TRPV1; dose 150 micromolar): 3.9 nA | calcium response of WT HEK293 (WT HEK293): responding slightly

CCCCCc1cc(O)c(C/C=C(\C)CCC=C(C)C)c(O)c1 [CBG, Cannabigerol]
attainment of the pore-dilated state (TRPV1): lack of attainment of the pore-dilated state | IV relationship / TRPV1 channel state (TRPV1; [10]): outwardly-rectifying IV curve consistent with un-dilated TRPV1 (state 1) | EC50 (TRPV1; [11]): 19 µM | inward current induced (TRPV1): 4-5 nA | time course of induced TRPV1 current (sustained or inactivating) (TRPV1): sustained | Rate of inactivation (TRPV1; dose 10 micromolar): 0 dpsec^−1 | Time to max (TRPV1; dose 10 micromolar): 120 s | Max I amplitude (TRPV1; dose 10 micromolar): 0.2 nA | Rate of inactivation (TRPV1; dose 30 micromolar): .007 dpsec^−1 | Time to max (TRPV1; dose 30 micromolar): 94 s | Max I amplitude (TRPV1; dose 30 micromolar): 0.6 nA | Rate of inactivation (TRPV1; dose 50 micromolar): .008 dpsec^−1 | Time to max (TRPV1; dose 50 micromolar): 96 s | Max I amplitude (TRPV1; dose 50 micromolar): 0.7 nA | Rate of inactivation (TRPV1; dose 150 micromolar): .014 dpsec^−1 | Time to max (TRPV1; dose 150 micromolar): 92 s | Max I amplitude (TRPV1; dose 150 micromolar): 0.9 nA

CCCCCc1cc(O)c2c(c1)OC(C)(C)c1ccc(C)cc1-2 [CBN, Cannabinol]
EC50 (TRPV1): 36 µM | inward and outward current magnitude compared to 50 μM CBN (TRPV1; 10 μM CBN): greater inward and outward current magnitude | IV relationship / TRPV1 channel state (TRPV1; after 10 μM CBN): becomes more linear; also recorded: partial state transition from state 1 to state 2 | IV relationship / TRPV1 channel state (TRPV1; [10]): outwardly-rectifying IV curve consistent with un-dilated TRPV1 (state 1) | inward current induced (TRPV1): 0.5-2 nA | time course of induced TRPV1 current (sustained or inactivating) (TRPV1): rapidly inactivating | current development and inactivation (TRPV1): activated quickly, but rapidly inactivated with a slower kinetic profile | Rate of inactivation (TRPV1; dose 10 micromolar): 0 dpsec^−1 | Time to max (TRPV1; dose 10 micromolar): 174 s | Max I amplitude (TRPV1; dose 10 micromolar): 0.4 nA | Rate of inactivation (TRPV1; dose 30 micromolar): 0 dpsec^−1 | Time to max (TRPV1; dose 30 micromolar): 176 s | Max I amplitude (TRPV1; dose 30 micromolar): 0.6 nA | Rate of inactivation (TRPV1; dose 50 micromolar): .010 dpsec^−1 | Time to max (TRPV1; dose 50 micromolar): 120 s | Max I amplitude (TRPV1; dose 50 micromolar): 1.5 nA | Rate of inactivation (TRPV1; dose 150 micromolar): .019 dpsec^−1 | Time to max (TRPV1; dose 150 micromolar): 82 s | Max I amplitude (TRPV1; dose 150 micromolar): 1.8 nA

Source: patent US20220387375A1, “TRPV1 ACTIVATION-MODULATING COMPLEX MIXTURES OF CANNABINOIDS AND/OR TERPENES” (GBS Global Biopharma, Inc., priority 2018, published 2022)
